Reference: US20080153910A1, “LYSINE IN THERAPEUTIC ANGIOGENESIS FOR CARDIAC AND CEREBRAL/NEURAL REPERFUSION” (priority 2001, published 2008)
“Also recorded” adds a separate entry of the source.

Legend:
[1] = test system: acute surgical wounds; assay: Acute surgical wound model (full thickness skin incisions); type: in vivo, Rabbits
Procedure: Rabbits (about 1.5 Kg body wt.) from Haffkine Biopharmaceuticals, Mumbai, India were used for acute surgical wound model experimentations.
For acute surgical wound experiments, dorsal paravertebral skin was shaved in both the groups. Full thickness skin incisions (about 1 inch long) were made on either side of the vertebral column under local anaesthesia. In the experimental group, “lysine” in powder form(s) was instilled/spinkled/applied (about 10-15 mg) in each wound and the wounds were closed by single suture each to keep the edges apposed. No surface/systemic antibiotics were given to the animals dressed with “lysine”. Similar treatments were given to the control wounds except for omitting the “lysine” dressing altogether. Control wounds were protected with surface antibiotics ointment, applied at the time of each dressing. The wounds were covered with adhesive plasters in both the groups. Dressings were replaced every 48-72 hrs.
(§1) Tissue biopsies were taken from both groups—either animals or human beings—from appropriate wound site(s)/cardiac tissue (myocardium) at various time points post surgery/applications/dressings with the active ingredient(s), fixed at room temp. for 24 hrs. in formal saline (4% v/v). Tissue sections were stained with haematoxylin and eosin and observed under light microscope.
For examination of wound tissues under scanning electron microscope, skin tissues were taken (about 1.5 inch square) surgically under local anaesthesia in such a way that the original wound incision lied at the center of this piece of skin tissue, which was fixed in formal saline (4%) for 24 hrs at room temp. and pressure. Before mounting on to the observation stub with the help of a double faced adhesive tape, the wet tissues were dried adequately first with tissue papers and then at 37 degree Centrigrade incubator for about 2 hrs. Finally the dried tissues were cut with scissors in such a way that the cut line in each case was perpendicular to the original incision line. The finally prepared samples were gold coated in a hummer for around 4 minutes in vacuum and examined in a scanning electron microscope (Jeol).

[2] = test system: chronic wounds; assay: Controlled open trial of lysine in chronic human wounds; type: in vivo
Source text: Chronic wounds of different anatomical locations as well as etiology were included in the controlled open trial of “lysine” for it's/their ability to induce angiogenesis and induction of the healthy granulation tissue formation in these chronic wounds. These included diabetic wounds and ulcers of various durations and severity, bed sores and pressure sores of various durations, infected wounds and cellulitic wounds of various origins, burns of different degrees and extents—both infected and otherwise, amputations, skingrafts, venous ulcers and even leprotic wounds and ulcers of long standing.
The wounds were debrided manually with gauge pieces soaked in normal saline to the point of bleeding of smaller vessels at the base of the wounds (wound-bed). Some of the chronic wounds were debrided surgically depending on the severity of the wound condition(s). Dressings were done with adequate amounts of the amino acid and/derivative(s) applied to the wound site(s) topically/locally. Wounds were closed with moistened gauge piece and adhesive tapes and the procedure repeated every 72-96 hrs. This approach constituted the experimental group subjects. In the control groups, conventional therapy were instituted both in terms of surgical/manual/enzymatic debridements as well as applying usual medications e.g. betadine, salutyl (a preparation which removes ischaemia by inducing angiogenesis in ischaemic wounds), trypsin, chymotrypsin, metronidazole preparations, silver sulfadiazine, regranex (a PDGF based healing agent containing “small” amount of the cationic amino acid lysine as “stabilizing agent”, along with quite a few other additives and ingredients), various surface antibiotics etc., depending on the clinical condition in question.
as §1

[3] = test system: hybridoma cell mass; conditions: compared to other physico-chemical means (Datta, D et al. 1997); cited from earlier work
[4] = test system: ischaemic myocardium; assay: Cardiac angiogenesis / coronary ischaemia model; type: in vivo, sheep
Procedure: For cardiac angiogenesis experiments, healthy immunized adult sheep, weighing 20-30 Kgs were selected. The selected animals underwent routine blood tests and echocardiography prior to surgery which acted as the base line data. Under general anaesthesia, 4 sheep were operated through a left thoracotomy. […] In one of the experimental animals, in addition to the intramuscular injection of lysine, about 10 ml of the saturated solution of lysine was injected at the root of the aorta through a pig-tail catheter passed retrogradely through the descending thoracic aorta. […] Post-operative echocardiogram were done in all the animals at 96 hrs post-surgery to assess the left ventricular wall motion. Two weeks post-surgery echocardiograms were done to assess left ventricular wall motion. The animals were sacrificed and autopsy of the hearts were done for examination of the degree of angiogenesis.
as §1, with “microscope. […]” for “microscope.”

[5] = test system: protein synthesis; assay: 35S-Methionine incorporation in acute surgical wound tissue; type: in vivo; conditions: 72 hrs post surgery, topical, vs control wound, HCl
[6] = test system: collagen synthesis; assay: 14C-Glycine incorporation in wound tissue; type: in vivo; conditions: experimental wound, 100% (w/w) topical, 0.25 to 100 mg/sq. in
Source text: As glycine is present at every third position in the primary sequence of Collagen, ^14C-Glycine incorporation in the wound tissue was supposed to give an idea of differential collagen synthesis in experimental and control wounds.

[7] = test system: angiogenesis; assay: Oligo-lysine and d-lysine induced cell expansion and angiogenesis in-vivo; conditions: compared to l-lysine
[8] = test system: adherent cellular growth; assay: Cellular expansion in culture (in-vitro); type: cell-based; conditions: compared to l-lysine; d-Lysine about 10 mcg/ml added load
Source text: Photo 12, cell culture photographs of d-Lysine (about 10 mcg/ml of added load, in addition to the usual load of I-Lysine, whatever was there in the media as the metabolic requirement) mediated cellular expansion in culture. […] In-situ controlled and physiological expansion of constituent cells in a wound bed, including the endothelial cells and their mediation of normal angiogenic process, mediate only by lysine/derivative(s), without addition/intervention of any other additive(s), whatsoever, is the essence of present invention.

NCCCC[C@H](N)C(=O)O [lysine, Lysine]
granulation tissue (scanning electron microscopy) ([1]; acute surgical incision dressed with topically applied lysine, 72 hrs post surgery): spongy granulation tissue
dividing cells in-vivo ([1]; acute surgical incision model, systemic application): stratified layers of dividing cells
histopathology: cellular thickening from basal keratinocyte layer ([1]; rabbit, experimental vs control wound): extensive cellular thickening from the basal keratinocyte layer
granulation tissue (scanning electron microscopy) ([1]; systemic lysine, i.p. injection, 5 ml, 5 mg/ml): spongy granulation tissue in the vicinity of the incision
in-situ tissue repair ([2]; all types of acute and chronic wounds of both animal and human origin): excellent tissue regeneration in-situ
granulation tissue / angiogenic response ([2]; bed sore, about two weeks of topical application): Extensive granulation tissue and profuse angiogenic response
time to skin graft ([2]; cellulitic wound following 3rd degree burn): around two weeks
granulation/angiogenic tissue in wound bed ([2]; cellulitic wound following 3rd degree burn, 11th day post initiation of therapy): extensive granulation/angiogenic tissue
granulation/angiogenesis ([2]; cellulitic wound following 3rd degree burn, third day of topical therapy): reasonable granulation/angiogenesis
blood cell intravasation in the wound area ([2]; chronic diabetic ulcer, around 11th day post initiation of therapy): extensive blood cell intravasation
glandular structures (histopathology) ([2]; chronic diabetic ulcer, topical): healthy glandular structures
angiogenic response (histopathology) ([2]; chronic human wounds, topical): profuse angiogenic response; also recorded: Extensive angiogenic response
time to skin graft (clinical end point) ([2]; chronic stump wound): around two weeks
granulation ([2]; chronic stump wound, within two weeks of topical therapy): extensive granulation
Keratinocyte layer thickening (histopathology) ([2]; experimental wounds of human origin): very advanced degree of Keratinocyte layer thickening
time to ready for skin graft ([2]; infected third degree burn, post institution of therapy): 13 days
induction of granulation tissue/angiogenesis ([2]; infected third degree burn, within around two weeks): remarkable induction of granulation tissue/angiogenesis
granulation/angiogenesis ([2]; leprotic wound (about 3 yr old), topical): very good granulation/angiogenesi-s
reduction in size ([2]; leprotic wound, about 12 weeks topical treatment): about 60%
time to initiation of repair-by-in-situ-regeneration ([2]; topical and/or systemic therapy): 72 to 96 h
time to first appearance of healthy granulation tissue ([2]; wounds of different locations, origins and durations): 72 to 96 h
expansion of biomass (cell population) [3]: expand the biomass (cell population) at the least possible time
echocardiography: movement of myocardium in ischaemic zones ([4]; 96 hrs post surgery): definite non-asynchronous movement of the myocardium
hierarchical nature of the angiogenic response ([4]; 21 days post surgery): capillaries filled with blood cells
angiogenic response in ischaemic cardiac muscle tissue ([4]; 21 days post surgery, vs control): extensive angiogenic response
histopathology: angiogenic response ([4]; around two-weeks, vs control): advanced degree of matured angiogenic response

Cl.NCCCC[C@H](N)C(=O)O [L-lysine HCl]
35S-Methionine incorporation ([5]; listed as 100% (w/w) powder formulation): Significant difference
35S-Methionine incorporation ([5]; listed as amino acid): Significantly more
14C-Glycine incorporation [6]: Comparatively low incorporation

NCCCC[C@@H](N)C(=O)O [d-Lysine]
angiogenesis in-vivo [7]: equally effective
expansion of cells in-vivo [7]: equally effective
cellular expansion / growth in-vitro [8]: equally effective
